Paper PMC7279038, “Antioxidant and Neuroprotective Effects Induced by Cannabidiol and Cannabigerol in Rat CTX-TNA2 Astrocytes and Isolated Cortexes” (International Journal of Molecular Sciences, 2020)

What was measured:
[1] = test system: isolated rat cortexes, 3-HK; assay: K+ 60 mM neurotoxicity paradigm, 3-HK level; conditions: for effect on K+ 60 mM-induced increase in 3-HK level: CBD 1000 nM, CBG 1 nM
Procedure: (§1) Sprague–Dawley rats (200–250 g) were sacrificed by CO2 inhalation (Italian Health Ministry authorization N. F4738.N.XTQ, delivered on 11th November 2018) and isolated prefrontal cortex specimens were immediately explanted and incubated in thermostatic shaking bath at 37 °C for 1 h (incubation period), in Krebs–Ringer buffer at the following K^+ concentrations:
(§2) Cortexes were stimulated with CBD (1000 nM) and […]. Afterwards, specimens were homogenized in perchloric acid solution (0.05 M) for the extraction and quantification of nitrites, via the aforementioned colorimetric Griess assay, and serotonin (5-HT), 5-hydroxyindoleacetic (5HIIA),3-hydroxykinurenine (3-HK) and kinurenic acid (KA) (ng/mg wet tissue) via high performance liquid chromatography analysis. Additionally, an untargeted proteomic analysis was carried out on the cortex homogenate. The analytical protocols for 5-HT, 5HIIA, 3-HK, KA and protein level determinations are described below. The analyses were conducted in triplicate and in independent facilities with blind modality.
Tissue 3-HK, 5-HT and 5HIIA levels were analyzed through an HPLC apparatus consisting of a Jasco (Tokyo, Japan) PU-2080 chromatographic pump and an ESA (Chelmsford, MA, USA) Coulochem III coulometric detector, equipped with a microdialysis cell (ESA-5014b), a porous graphite working electrode and a solid state palladium reference electrode. The analytical conditions for identification and quantification were selected according to previous studies. Specifically, the analytical cell was set at −0.150 V for detector 1 and at +0.300 V for detector 2, with a range of 100 nA. The chromatograms were monitored at the analytical detector 2. […] Sample concentrations were calculated by linear regression curve (y = bx + m) obtained with standard. Neither internal nor external standards were necessary for analyte quantification in the cortex homogenate, and all tests performed for method validation and yielded results in accordance with limits indicated in official guidelines for applicability in laboratory trials. […]

syntaxin 1b (Stx 1b) = assay: Untargeted proteomic analysis of cortexes, Stx 1b; design: species or system rat; conditions: CBD 1000 nM, CBG 1 nM
Procedure: as §1
as §2, with “The analyses were conducted in triplicate and in independent facilities with blind modality.” left out
After protein quantification, a volume corresponding to 50 μg of proteins was loaded onto a Nanosep 10-kDa-cutoff filter (Pall Corporation, Michigan, USA) and digested according to the protocol we routinely use in our laboratory, adapted from Distler et al. Briefly, the sample was washed twice with 200 μL urea buffer (8M urea, 100 mM Tris pH 8.5 in milliQ water) to remove the detergents present in the lysis buffer. […]

| Compound | effect on K+ 60 mM-induced increase in 3-HK level [1] | effect on K+ 60 mM-induced reduction in Stx 1b level (syntaxin 1b (Stx 1b)) | 3-HK level ([1]; basal conditions only) |
| --- | --- | --- | --- |
| C=C(C)[C@@H]1CCC(C)=C[C@H]1c1c(O)cc(CCCCC)cc1O [CBD, Cannabidiol] | successful in blunting | blocking the downregulation |  |
| CCCCCc1cc(O)c(C/C=C(\C)CCC=C(C)C)c(O)c1 [CBG, cannabigerol] | completely ineffective | completely ineffective | reduce 3-HK |
